Results on 25 compounds are retold here after patent publication US20230312542A1, “HYDROXYPYRROLIDINE DERIVATIVE AND MEDICINAL APPLICATION THEREOF” (MITSUBISHI TANABE PHARMA CORPORATION, priority 2020, published 2023).

Each structure is given as a SMILES string. Bounds are passed on as bounds.

The target in one assay is VHL (co-expressed with Elongin B and Elongin C) (Homo sapiens (Human), UniProt P40337). Nature of the assay: Measurement of intermolecular interactions using surface plasmon resonance (Biacore T200), Kd value for VHL. In kind it is binding.
Sequence of VHL (co-expressed with Elongin B and Elongin C) (P40337 whole entry, looked up): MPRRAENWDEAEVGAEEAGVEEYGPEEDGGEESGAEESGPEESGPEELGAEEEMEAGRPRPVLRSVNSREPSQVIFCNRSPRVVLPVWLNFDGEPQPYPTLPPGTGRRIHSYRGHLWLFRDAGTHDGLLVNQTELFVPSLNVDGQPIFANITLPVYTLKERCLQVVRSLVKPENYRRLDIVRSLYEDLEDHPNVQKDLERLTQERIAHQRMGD
Sequence of VHL (co-expressed with Elongin B and Elongin C) (Q15370 whole entry partner, looked up): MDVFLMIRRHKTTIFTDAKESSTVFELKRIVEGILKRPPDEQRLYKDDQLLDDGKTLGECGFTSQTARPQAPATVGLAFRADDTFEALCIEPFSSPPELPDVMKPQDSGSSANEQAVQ
Sequence of VHL (co-expressed with Elongin B and Elongin C) (Q15369 whole entry partner, looked up): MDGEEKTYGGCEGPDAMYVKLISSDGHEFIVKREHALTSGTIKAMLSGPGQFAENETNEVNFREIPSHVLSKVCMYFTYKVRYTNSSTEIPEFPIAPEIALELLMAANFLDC
Details: not given
An excerpt: As the device, Biacore T200 (manufactured by GE Healthcare) was used. VHL was obtained by co-expressing Elongin B and Elongin C with a Twin-Strep-tag added to the N-terminus. As the sensor chip, Sensor chip CM5 (manufactured by GE Healthcare) was used. First, Strep-Tactin XT (manufactured by GE Healthcare) was immobilized on the sensor chip by amine coupling. Thereafter, VHL was immobilized using the affinity of Strep-Tactin XT and Twin-Strep-tag, and VHL was further immobilized on the sensor chip by amine coupling.
As the running buffer, a mixed solution of 20 mM HEPES pH 7.5, 150 mM NaCl, 1 mM TCEP, 0.005% Tween 20, and 2% DMSO was used. […] The Contact time and the Dissociation time were determined according to the properties of the compounds. For many compounds, 60 seconds and 120 seconds were respectively used.
What is called Kd is the constant that tells how readily two partners part at equilibrium. `COc1cc(C(C(=O)N2C[C@H](O)C[C@H]2c2nc(C(=O)N3CCC(Nc4ccccc4)CC3)c[nH]2)C(C)C)on1` (stereo partly drawn) [Example 150, 1-[(2S,4R)-2-[4-(4-anilinopiperidine-1-carbonyl)-1H-imidazol-2-yl]-4-hydroxypyrrolidin-1-yl]-2-(3-methoxyisoxazol-5-yl)-3-methylbutan-1-one]: the Kd was 1 to 10 µM.

The same assay, now with this note: SPR, immobilized VHL, 25° C.; read-out: Kd.
Take `CC(=O)N[C@H](C(=O)N1C[C@H](O)C[C@H]1c1ncc(-c2cccc(-c3scnc3C)c2)[nH]1)C(C)(C)C` [Example 6, N-[(2S)-1-[(2S,4R)-4-hydroxy-2-[5-[3-(4-methyl-1,3-thiazol-5-yl)phenyl]-1H-imidazol-2-yl]pyrrolidin-1-yl]-3,3-dimethyl-1-oxobutan-2-yl]acetamide]: the Kd lay within 1 to 10 µM.
Same read-out and setting: the figure for `COc1cc(C(C(=O)N2C[C@H](O)C[C@H]2c2nc(C(=O)N3CCN(c4ccccc4)CC3)c[nH]2)C(C)C)on1` (stereo partly drawn) [Example 140, 1-[(2S,4R)-4-hydroxy-2-[4-(4-phenylpiperazine-1-carbonyl)-1H-imidazol-2-yl]pyrrolidin-1-yl]-2-(3-methoxyisoxazol-5-yl)-3-methylbutan-1-one] is 1 to 10 µM; for `COc1cc(C(C(=O)N2C[C@H](O)C[C@H]2c2ncc(-c3cccc(-c4scnc4C)c3)[nH]2)C(C)C)on1` (stereo partly drawn) [Example 44, 1-[(2S,4R)-4-hydroxy-2-[5-[3-(4-methyl-1,3-thiazol-5-yl)phenyl]-1H-imidazol-2-yl]pyrrolidin-1-yl]-2-(3-methoxy-1,2-oxazol-5-yl)-3-methylbutan-1-one] it is less than 1 µM.
The same measure, in the same setting: to `CC(=O)N[C@H](C(=O)N1C[C@H](O)C[C@H]1c1ncc(Cc2ccc(-c3scnc3C)cc2)[nH]1)C(C)(C)C` [Example 93, N-[(1S)-1-[(2S,4R)-4-hydroxy-2-[5-[[4-(4-methyl-1,3-thiazol-5-yl)phenyl]methyl]-1H-imidazol-2-yl]pyrrolidin-1-yl]-3,3-dimethyl-1-oxobutan-2-yl]acetamide] belongs 1 to 10 µM.
Still for that read-out and setting: to `CCCc1nnc(C(C(=O)N2C[C@H](O)C[C@H]2c2ncc[nH]2)C(C)C)o1` (stereo partly drawn) [Example 162, 1-[(2S,4R)-4-hydroxy-2-(1H-imidazol-2-yl)pyrrolidin-1-yl]-3-methyl-2-(5-propyl-1,3,4-oxadiazol-2-yl) butan-1-one] belongs 10 to 50 µM; to `CNC(=O)c1cccc(-c2cnc([C@@H]3C[C@@H](O)CN3C(=O)C(c3cc(OC)no3)C(C)C)[nH]2)c1` (stereo partly drawn) [Example 80, 3-[2-[(2S,4R)-4-hydroxy-1-[2-(3-methoxy-1,2-oxazol-5-yl)-3-methylbutanoyl]pyrrolidin-2-yl]-1H-imidazol-5-yl]-N-methylbenzamide], 1 to 10 µM.
For `CC(=O)N[C@H](C(=O)N1C[C@H](O)C[C@H]1c1nc(C(=O)N(C)Cc2ccccc2)c[nH]1)C(C)(C)C` [Example 51, 2-[(2S,4R)-1-[(2S)-2-acetamido-3,3-dimethylbutanoyl]-4-hydroxypyrrolidin-2-yl]-N-benzyl-N-methyl-1H-imidazole-4-carboxamide], the Kd was 1 to 10 µM.
For the compound `COc1cc(C(C(=O)N2C[C@H](O)C[C@H]2c2nccn2Cc2ccccc2OCc2ccccc2)C(C)C)on1` (stereo partly drawn) [Example 66, 1-[(2S,4R)-4-hydroxy-2-[1-[(2-phenylmethoxyphenyl)methyl]imidazol-2-yl]pyrrolidin-1-yl]-2-(3-methoxy-1,2-oxazol-5-yl)-3-methylbutan-1-one], the Kd lay in the range of 10 to 50 µM.
On the same count and under the same terms, to `COc1cc(C(C(=O)N2C[C@H](O)C[C@H]2c2nccn2Cc2cncc(-c3ccc(F)cc3)c2)C(C)C)on1` (stereo partly drawn) [Example 113, 1-[(2S,4R)-2-[1-[[5-(4-fluorophenyl)-3-pyridyl]methyl]imidazol-2-yl]-4-hydroxypyrrolidin-1-yl]-2-(3-methoxyisoxazol-5-yl)-3-methylbutan-1-one] belongs 10 to 50 µM; to `COc1cc(C(C(=O)N2C[C@H](O)C[C@H]2c2nc(C(=O)N(C)CCNc3ccccc3)c[nH]2)C(C)C)on1` (stereo partly drawn) [Example 158, N-(2-anilinoethyl)-2-[(2S,4R)-4-hydroxy-1-[2-(3-methoxyisoxazol-5-yl)-3-methylbutanoyl]pyrrolidin-2-yl]-N-methyl-1H-imidazole-4-carboxamide], less than 1 µM.
On the same count and under the same terms, the figure for `CC(=O)N[C@H](C(=O)N1C[C@H](O)C[C@H]1c1nc(C(=O)N(C)Cc2ccccc2F)c[nH]1)C(C)(C)C` [Example 17, 2-[(2S,4R)-1-[(2S)-2-acetamido-3,3-dimethylbutanoyl]-4-hydroxypyrrolidin-2-yl]-N-[(2-fluorophenyl)methyl]-N-methyl-1H-imidazole-4-carboxamide] is 1 to 10 µM; for `COc1cc(C(C(=O)N2C[C@H](O)C[C@H]2c2nc(C(=O)N(C)CC3CCN(Cc4ccccc4F)CC3)c[nH]2)C(C)C)on1` (stereo partly drawn) [Example 155, N-[[1-[(2-fluorophenyl)methyl]-4-piperidyl]methyl]-2-[(2S,4R)-4-hydroxy-1-[2-(3-methoxyisoxazol-5-yl)-3-methylbutanoyl]pyrrolidin-2-yl]-N-methyl-1H-imidazole-4-carboxamide] it is 1 to 10 µM.
For `COc1cc(C(C(=O)N2C[C@H](O)C[C@H]2c2nc(C)cs2)C(C)C)on1` (stereo partly drawn) [Example 147, 1-[(2S,4R)-4-hydroxy-2-(4-methylthiazol-2-yl)pyrrolidin-1-yl]-2-(3-methoxyisoxazol-5-yl)-3-methylbutan-1-one], the Kd lay in the range of 10 to 50 µM.
Turning to `CC(=O)N[C@H](C(=O)N1C[C@H](O)C[C@H]1c1nc(C(=O)N(C)Cc2cccc(F)c2)c[nH]1)C(C)(C)C` [Example 18, 2-[(2S,4R)-1-[(2S)-2-acetamido-3,3-dimethylbutanoyl]-4-hydroxypyrrolidin-2-yl]-N-[(3-fluorophenyl)methyl]-N-methyl-1H-imidazole-4-carboxamide], the Kd lay in the range of 1 to 10 µM.
Consider `CC(=O)N[C@H](C(=O)N1C[C@H](O)C[C@H]1c1nc(C(=O)N(C)Cc2cccc(C(F)(F)F)c2)c[nH]1)C(C)(C)C` [Example 21, 2-[(2S,4R)-1-[(2S)-2-acetamido-3,3-dimethylbutanoyl]-4-hydroxypyrrolidin-2-yl]-N-methyl-N-[[3-(trifluoromethyl)phenyl]methyl]-1H-imidazole-4-carboxamide], for which the Kd lay within 1 to 10 µM.
Turning to `CC(=O)N[C@H](C(=O)N1C[C@H](O)C[C@H]1c1ncc(Cc2cccc(-c3scnc3C)c2)[nH]1)C(C)(C)C` [Example 91, N-[(2S)-1-[(2S,4R)-4-hydroxy-2-[5-[[3-(4-methyl-1,3-thiazol-5-yl)phenyl]methyl]-1H-imidazol-2-yl]pyrrolidin-1-yl]-3,3-dimethyl-1-oxobutan-2-yl]acetamide], the dissociation constant Kd was 1 to 10 µM.
On to `COc1cccc(-c2nc([C@@H]3C[C@@H](O)CN3C(=O)C(c3cc(OC)no3)C(C)C)[nH]c2-c2cccc(OC)c2)c1` (stereo partly drawn) [Example 76, 1-[(2S,4R)-2-[4,5-bis(3-methoxyphenyl)-1H-imidazol-2-yl]-4-hydroxypyrrolidin-1-yl]-2-(3-methoxy-1,2-oxazol-5-yl)-3-methylbutan-1-one], for which the Kd was 1 to 10 µM.
With `COc1cc(C(C(=O)N2C[C@H](O)C[C@H]2c2nccn2CC(=O)Nc2ccccc2)C(C)C)on1` (stereo partly drawn) [Example 96, 2-[2-[(2S,4R)-4-hydroxy-1-[2-(3-methoxy-1,2-oxazol-5-yl)-3-methylbutanoyl]pyrrolidin-2-yl]imidazol-1-yl]-N-phenylacetamide], the Kd lay in the range of 10 to 50 µM.
Same read-out and setting: to `CC(=O)N[C@H](C(=O)N1C[C@H](O)C[C@H]1c1ncc(Cc2ccc(Br)cc2)[nH]1)C(C)(C)C` [Example 81, N-[(2S)-1-[(2S,4R)-2-[5-[(4-bromophenyl)methyl]-1H-imidazol-2-yl]-4-hydroxypyrrolidin-1-yl]-3,3-dimethyl-1-oxobutan-2-yl]acetamide] belongs 1 to 10 µM; to `CC(=O)N[C@H](C(=O)N1C[C@H](O)C[C@H]1c1nc(C(=O)N(C)Cc2ccc(F)cc2)c[nH]1)C(C)(C)C` [Example 19, 2-[(2S,4R)-1-[(2S)-2-acetamido-3,3-dimethylbutanoyl]-4-hydroxypyrrolidin-2-yl]-N-[(4-fluorophenyl)methyl]-N-methyl-1H-imidazole-4-carboxamide], 1 to 10 µM; to `CC(=O)N[C@H](C(=O)N1C[C@H](O)C[C@H]1c1ncc(-c2ccc(-c3scnc3C)cc2)[nH]1)C(C)(C)C` [Example 89, N-[(2S)-1-[(2S,4R)-4-hydroxy-2-[5-[4-(4-methyl-1,3-thiazol-5-yl)phenyl]-1H-imidazol-2-yl]pyrrolidin-1-yl]-3,3-dimethyl-1-oxobutan-2-yl]acetamide], 1 to 10 µM.
The same measure, in the same setting: to `CC(=O)N[C@H](C(=O)N1C[C@H](O)C[C@H]1c1nc(C(=O)N(C)Cc2cccc(-c3scnc3C)c2)c[nH]1)C(C)(C)C` [Example 29, 2-[(2S,4R)-1-[(2S)-2-acetamido-3,3-dimethylbutanoyl]-4-hydroxypyrrolidin-2-yl]-N-methyl-N-[[3-(4-methyl-1,3-thiazol-5-yl)phenyl]methyl]-1H-imidazole-4-carboxamide] belongs 1 to 10 µM; to `COc1cc(C(C(=O)N2C[C@H](O)C[C@H]2c2nc(C(=O)N3CCCC(C(=O)Nc4ccccc4)C3)c[nH]2)C(C)C)on1` (stereo partly drawn) [Example 148, 1-[2-[(2S,4R)-4-hydroxy-1-[2-(3-methoxyisoxazol-5-yl)-3-methylbutanoyl]pyrrolidin-2-yl]-1H-imidazole-4-carbonyl]-N-phenylpiperidine-3-carboxamide], 1 to 10 µM.
Same read-out and setting: the figure for `CC(=O)N[C@H](C(=O)N1C[C@H](O)C[C@H]1c1ncc(-c2ccccc2C(F)(F)F)[nH]1)C(C)(C)C` [Example 84, N-[(2S)-1-[(2S,4R)-4-hydroxy-2-[5-[2-(trifluoromethyl)phenyl]-1H-imidazol-2-yl]pyrrolidin-1-yl]-3,3-dimethyl-1-oxobutan-2-yl]acetamide] is 1 to 10 µM.
